# Tested on: not listed separately
# Assay: Oral bioavailability
# Assay type: ADME, organism-based
# Conditions: eutheria, in vivo
row,SMILES,bioavailability [%]
1,CN[C@H](Cc1ccccc1)C(=O)N1CCC[C@H]1C(=O)N[C@@H](CCCNC(=N)N)C(=O)c1nc2ccc(C(=O)O)cc2s1,3
2,CN[C@H](Cc1ccccc1)C(=O)N1CCC[C@H]1C(=O)N[C@@H](CCCN=C(N)N)C(=O)c1nc2ccccc2s1,1

# Molecular target: T1, Cathepsin G (Homo sapiens, UniProt P08311)
# T1 sequence (P08311 whole entry): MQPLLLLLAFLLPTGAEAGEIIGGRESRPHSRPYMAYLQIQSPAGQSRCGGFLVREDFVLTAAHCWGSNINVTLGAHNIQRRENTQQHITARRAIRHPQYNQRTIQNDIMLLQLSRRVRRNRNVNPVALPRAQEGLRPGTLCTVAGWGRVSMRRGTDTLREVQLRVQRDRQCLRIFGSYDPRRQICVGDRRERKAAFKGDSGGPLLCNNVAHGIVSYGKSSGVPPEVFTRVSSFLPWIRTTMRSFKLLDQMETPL
# Assay: Inhibitory activity against human Cathepsin G
# Conditions: not given
row,IC50 [nM],SMILES
1,4100,O=C(c1ccc2ccccc2c1)C(c1cccc2ccccc12)P(=O)(O)O (stereo not drawn)
2,500,CN(CC(=O)NCC(c1ccccc1)c1ccccc1)C(=O)c1cc2ccccc2cc1C(=O)C(c1cccc2ccccc12)P(=O)(O)O (stereo not drawn)
3,1000,CN(Cc1ccccc1)C(=O)c1cc2ccccc2cc1C(=O)C(c1cccc2ccccc12)P(=O)(O)O (stereo not drawn)
4,1300,CN(CC(=O)NCCc1ccccc1)C(=O)c1cc2ccccc2cc1C(=O)C(c1cccc2ccccc12)P(=O)(O)O (stereo not drawn)

# Molecular target: T2, Cathepsin G (Homo sapiens) (UniProt P08311)
# T2 sequence (whole entry): T1 sequence (P08311 whole entry)
# Assay: Inhibitory activity against human Cathepsin G at 100 uM; Not active
# Conditions: not given
row,inhibition [%],SMILES
1,< 50,CC(C(=O)c1ccc2ccccc2c1)(c1cccc2ccccc12)P(=O)(O)O (stereo not drawn)
2,< 50,O=P(O)(O)C(c1cccc2ccccc12)C(O)c1ccc2ccccc2c1 (stereo not drawn)
3,< 50,O=P(O)(O)C(Cc1ccc2ccccc2c1)c1cccc2ccccc12 (stereo not drawn)
4,< 50,O=C(Cc1ccc2ccccc2c1)C(c1cccc2ccccc12)P(=O)(O)O (stereo not drawn)
5,< 50,O=C(c1ccc2ccccc2c1)C(c1ccccc1)P(=O)(O)O (stereo not drawn)
6,< 50,O=P(O)(O)C(c1cccc2ccccc12)S(=O)(=O)c1ccc2ccccc2c1 (stereo not drawn)
7,< 50,O=C(c1cccc2ccccc12)C(c1cccc2ccccc12)P(=O)(O)O (stereo not drawn)
8,< 50,O=C(c1ccc2ccccc2c1)C(c1ccc2ccccc2c1)P(=O)(O)O (stereo not drawn)

# Tested on: Canis familiaris
# Assay: In vivo antithrombotic activity using canine thrombosis model
# Assay type: functional
# Conditions: Canis lupus familiaris
row,SMILES,ED50 [mg/kg]
1,CN[C@H](Cc1ccccc1)C(=O)N1CCC[C@H]1C(=O)N[C@@H](CCCNC(=N)N)C(=O)c1nc2ccc(C(=O)O)cc2s1,0.47

# Tested on: Oryctolagus cuniculus
# Assay: In vivo antithrombotic activity using rabbit thrombosis model
# Assay type: functional
# Conditions: not given
row,SMILES,ED50 [mg/kg]
1,CN[C@H](Cc1ccccc1)C(=O)N1CCC[C@H]1C(=O)N[C@@H](CCCNC(=N)N)C(=O)c1nc2ccc(C(=O)O)cc2s1,0.3
2,CN[C@H](Cc1ccccc1)C(=O)N1CCC[C@H]1C(=O)N[C@H](C=O)CCCNC(=N)N,0.13
3,CN[C@H](Cc1ccccc1)C(=O)N1CCC[C@H]1C(=O)N[C@@H](CCCN=C(N)N)C(=O)c1nc2ccccc2s1,0.29

# Molecular target: T3, Prothrombin (Homo sapiens, UniProt P00734)
# Assay: Binding activity against human alpha thrombin
# Conditions: not given
row,IC50 [nM],SMILES
1,4.5,CN[C@@H](C(=O)N1CCC[C@H]1C(=O)N[C@@H](CCCN=C(N)N)C(=O)c1nc2ccccc2s1)C(c1ccccc1)c1ccccc1

# Molecular target: T3, Prothrombin
# Assay: Binding affinity to human thrombin
# Conditions: not given
row,SMILES,Ki [nM]
1,N=C(N)NCCC[C@@H]1NC(=O)C2CCCN2C(=O)[C@@H](Cc2ccccc2)NC(=O)CCCCCCCNC(=O)C1=O (stereo partly drawn),24
2,CN[C@@H](C(=O)N1CCC[C@H]1C(=O)N[C@@H](CCCN=C(N)N)C(=O)c1nc2ccccc2s1)C(c1ccccc1)c1ccccc1,0.00065
3,CN[C@H](Cc1ccccc1)C(=O)N1CCC[C@H]1C(=O)N[C@@H](CCCN=C(N)N)C(=O)c1nccn1C,200
4,CN[C@H](Cc1ccccc1)C(=O)N1CCC[C@H]1C(=O)N[C@@H](CCCN=C(N)N)C(=O)c1nc2ccccc2s1,0.2

# Results, then the compound that gave them:
row,Ki [nM],SMILES
1,15,CN[C@H](Cc1ccccc1)C(=O)N1CCC[C@H]1C(=O)N[C@@H](CCCN=C(N)N)C(=O)c1nc(O)c2ccccc2n1
2,1.5,N=C(N)NCCC[C@@H]1NC(=O)C2CCCN2C(=O)[C@@H](NCCc2ccccc2)CNC(=O)/C=C/[C@H](Cc2ccc(O)cc2)NC(=O)[C@@H](Cc2ccccc2)NC(=O)C1=O (stereo partly drawn)
3,3.1,N=C(N)NCCC[C@@H]1NC(=O)C2CCCN2C(=O)[C@@H](NC(=O)Cc2ccccc2)CNC(=O)/C=C/[C@H](Cc2ccc(O)cc2)NC(=O)[C@@H](Cc2ccccc2)NC(=O)C1=O (stereo partly drawn)
4,4.1,N=C(N)NCCC[C@@H]1NC(=O)C2CCCN2C(=O)[C@@H](NC=O)CNC(=O)/C=C/[C@H](Cc2ccc(O)cc2)NC(=O)[C@@H](Cc2ccccc2)NC(=O)C1=O (stereo partly drawn)
5,9.6,CN[C@H](Cc1ccccc1)C(=O)N1CCC[C@H]1C(=O)N[C@@H](CCCNC(=N)N)C(=O)c1nc2ccccc2[nH]1
6,260,N=C(N)NCCC[C@@H]1NC(=O)[C@@H]2CCCN2C(=O)[C@@H](NC=O)NC(=O)CCCCCCNC(=O)C1=O
7,6.2,CN[C@H](Cc1ccccc1)C(=O)N1CCC[C@H]1C(=O)N[C@@H](CCCN=C(N)N)C(=O)c1nc2ccccc2o1
8,2.1,CN[C@H](Cc1ccccc1)C(=O)N1CCC[C@H]1C(=O)N[C@@H](CCCNC(=N)N)C(=O)c1nccs1

# Molecular target: Tryptase (Homo sapiens, UniProt Q9BZJ3+Q15661+Q9NRR2)
# Assay: Binding affinity against human alpha tryptase
# Assay type: protein assay
# Conditions: not given
row,Ki [nM],SMILES
1,10,CC(=O)N1C[C@H](O)C[C@H]1C(=O)N[C@@H](CCCN=C(N)N)C(=O)c1nc2ccccc2s1
2,88,N=C(N)NCCC[C@H](NC(=O)C1CCCC1)C(=O)c1nc2ccccc2s1
